In patent US9428813B2, “DNA methylation analysis for the diagnosis, prognosis and treatment of adrenal neoplasms” (The United States of America, as Represented by the …, priority 2012, dated 2016):

System: NCI-H295R cells
Assay: Gene expression in decitabine-treated NCI-H295R adrenocortical cells
Type: cell-based
Conditions: human adrenocortical cells; including H19, S100A10, HOPX, ERBB3 and RUNX2
Protocol: Studies were performed on human adrenocortical cells and the effect of decitabine on gene-expression of HTN3, H19, S100A10, FAM129A, HOPX, TAC1, UCHL1, ERBB3, BEGNT5, RUNX2, GJA3, and BGN was evaluated. […] As such, these studies indicate that demethylating agents are agents capable of regulating malignant adrenocortical tumor-related molecules and can be used to treat ACC.

Nc1ncn([C@H]2C[C@H](O)[C@@H](CO)O2)c(=O)n1 [Decitabine, 5-azadeoxycytidine]
Effect on expression of malignant adrenocortical tumor-related molecules: significantly alter the expression
